Here are results for six compounds from US4873236A, “Condensed diazepinones, processes for preparing them and pharmaceutical compositions containing these compounds” (Dr. Karl Thomae GmbH, priority 1986, dated 1989).

The nature of one data set: Solubility in water. The following applies: in words.
Another data set has as its target T1, M2 (vagal bradycardia) (Rattus norvegicus, UniProt P10980).
T1 construct: The bradycardia produced by vagus stimulation; from tissue; host or cells: whole animal (male THOM rats), heart
T1 sequence (P10980 1-466): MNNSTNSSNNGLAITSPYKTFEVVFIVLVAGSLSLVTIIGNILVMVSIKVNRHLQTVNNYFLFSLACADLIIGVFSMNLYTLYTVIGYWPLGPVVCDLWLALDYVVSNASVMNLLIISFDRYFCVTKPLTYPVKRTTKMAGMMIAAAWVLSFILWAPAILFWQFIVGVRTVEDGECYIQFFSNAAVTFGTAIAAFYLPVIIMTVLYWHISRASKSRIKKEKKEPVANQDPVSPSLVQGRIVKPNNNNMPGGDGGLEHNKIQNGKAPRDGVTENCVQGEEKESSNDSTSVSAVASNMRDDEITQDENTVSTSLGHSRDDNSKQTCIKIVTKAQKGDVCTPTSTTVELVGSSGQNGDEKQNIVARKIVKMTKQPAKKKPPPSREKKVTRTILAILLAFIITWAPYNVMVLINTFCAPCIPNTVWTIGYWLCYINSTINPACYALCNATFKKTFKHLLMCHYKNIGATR
As to the kind of experiment: M1/M2 selectivity in the rat: inhibition of vagally stimulated bradycardia (M2). The settings on record: iv, 5 min, read-out: M2 activity (rat) ED50. The data set is classed as in vivo, male THOM rats. How it is done:
The method used was described by Hammer and Giachetti (Life Sciences 31, 2991-2998 (1982)). 5 minutes after intravenous injection of increasing doses of the substance, either the right vagus was electrically stimulated (frequency: 25 Hz; pulse width: 2 ms; duration of stimulus: 30 s; number of volts: supramaximal) or 0.3 mg/kg of McN-A-343 was injected intravenously into male THOM rats. The bradycardia produced by vagus stimulation and the increase in blood pressure produced by McN-A-343 were measured.

Data set [1] has as its target T2, M1 (rise in blood pressure by McN-A-343) (Rattus norvegicus, UniProt P08482).
T2 construct: from tissue
T2 sequence (P08482 1-460): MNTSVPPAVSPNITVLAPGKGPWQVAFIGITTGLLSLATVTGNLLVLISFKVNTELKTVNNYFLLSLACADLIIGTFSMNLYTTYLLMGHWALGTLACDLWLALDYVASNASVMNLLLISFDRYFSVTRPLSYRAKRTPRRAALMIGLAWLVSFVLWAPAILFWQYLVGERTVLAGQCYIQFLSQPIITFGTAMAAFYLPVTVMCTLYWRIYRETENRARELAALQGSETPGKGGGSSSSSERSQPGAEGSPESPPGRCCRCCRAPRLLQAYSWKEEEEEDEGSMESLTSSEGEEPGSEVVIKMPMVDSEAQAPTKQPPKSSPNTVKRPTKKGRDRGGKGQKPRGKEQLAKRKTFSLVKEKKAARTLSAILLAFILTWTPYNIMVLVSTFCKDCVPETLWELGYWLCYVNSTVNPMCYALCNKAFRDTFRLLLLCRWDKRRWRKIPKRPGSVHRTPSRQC
Put plainly: M1/M2 selectivity in the rat: inhibition of McN-A-343 blood pressure increase (M1). The following applies: iv, 5 min. The data set is classed as in vivo, male THOM rats.

Data set [2] has as its target T3, muscarinic receptors of the atrium (Cavia porcellus, UniProt H0VRN8).
T3 construct: In the isolated, spontaneously beating right atrium; from tissue; host or cells: isolated right atrium of guinea pig
T3 sequence (H0VRN8 1-466): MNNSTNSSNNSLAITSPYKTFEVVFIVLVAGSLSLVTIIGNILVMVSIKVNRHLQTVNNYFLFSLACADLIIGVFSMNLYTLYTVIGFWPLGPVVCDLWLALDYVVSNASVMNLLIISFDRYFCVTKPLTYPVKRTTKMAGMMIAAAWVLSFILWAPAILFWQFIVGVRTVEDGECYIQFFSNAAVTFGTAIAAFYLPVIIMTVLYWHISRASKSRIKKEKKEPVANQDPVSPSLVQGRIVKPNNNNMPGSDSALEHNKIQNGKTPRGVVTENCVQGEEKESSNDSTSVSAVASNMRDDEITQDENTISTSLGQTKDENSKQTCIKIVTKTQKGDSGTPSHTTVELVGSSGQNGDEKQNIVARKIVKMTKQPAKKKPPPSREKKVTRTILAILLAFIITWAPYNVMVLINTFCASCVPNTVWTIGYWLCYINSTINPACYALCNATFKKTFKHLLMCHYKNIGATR
Put plainly: Dissociation constants (KB) on spontaneously beating right atrium, methacholine antagonism. On the set-up: species or system guinea pig. Here is the method: Dissociation constants (KB values) were determined in vitro on the guinea pig ileum and spontaneously beating atrium. The ileum was removed and incubated in Krebs-Henseleit solution in an organ bath. Contractions were produced by means of increasing concentrations of methacholine (M) so that a full concentration-activity curve could be plotted. Then M was washed out, the test substance was added and kept in contact for 30 minutes and again a concentration-activity curve was plotted with M. The dissociation constant was calculated according to Arunlakshana and Schild (Brit. J. Pharmacol. 14, 48, 1959) from the dosage ratio (DR), i.e. the extent of displacement of the concentration-activity curve.
In the isolated, spontaneously beating right atrium M reduced the heart rate as a function of the concentration. This effect was stopped by the addition of an antimuscarinic. Dissociation constants for the muscarinic receptors of the atrium were obtained in the same way as described above. A comparison of the dissociation constants measured in the two different tissues made it possible to identify cardioselective substances.

The target of data set [3] is T4, muscarinic receptors, heart atrium (Rattus norvegicus, UniProt P10980).
T4 construct: from tissue; host or cells: heart (atrium, ventricle) of female rats, labelled in vivo
T4 sequence (P10980 1-466): T1 sequence (P10980 1-466)
As to the kind of experiment: Receptor bonding test in vivo, heart atrium (3H-NMS). On the set-up: species or system female rats. The settings on record: rat, iv, 0.5 h, read-out: ID50 Heart Atrium. How it is done:
(§1) For these experiments, female rats with a body weight of about 200 g were used. Before the start of the test the animals were anaesthetised with a dosage of 1.25 g/kg of urethane. The animals were each given the prescribed dosage of test substance by intravenous injection. After 15 minutes, 113 ng/kg of ^3 H-N-methylscopolamine (^3 H-NMS) were administered by the same route. After another 15 minutes the animals were killed and the heart, bronchi and lachrymal glands were removed. These organs were dissolved in Soluene R and the radioactivity was determined. The measurements were assumed to be total bonding. […] ID50 values were determined for the individual organs using these tests.

Data set [4] deals with T5, muscarinic receptors, heart ventricle (Rattus norvegicus, UniProt P10980).
T5 construct: the heart, bronchi and lachrymal glands were removed; from tissue; host or cells: heart (atrium, ventricle) of female rats, labelled in vivo
T5 sequence (P10980 1-466): T1 sequence (P10980 1-466)
Put plainly: Receptor bonding test in vivo, heart ventricle (3H-NMS). On the set-up: species or system female rats. The following applies: iv, 0.5 h, read-out: ID50 Heart Ventricle. Here is the method:
as §1

Data set [5] has as its system muscarinic receptors, bronchi. As to the kind of experiment: Receptor bonding test in vivo, bronchi (3H-NMS). The following applies: in vivo binding, i.v., rat, 113 ng/kg 3H-NMS; 30 min. On the set-up: species or system female rats. Here is the method: as §1
In data set [6] the target is T6, muscarinic receptors, lachrymal glands (Rattus norvegicus, UniProt P08483).
T6 construct: from tissue; host or cells: lachrymal glands of female rats, labelled in vivo
As to the kind of experiment: Receptor bonding test in vivo, lachrymal glands (3H-NMS). Details: species or system female rats. The following applies: iv, 0.5 h, read-out: ID50 Lachrymal glands. How it is done: as §1

In data set [7] the target is T7, muscarinic receptors, heart (Rattus norvegicus, UniProt P10980).
T7 construct: After removal of the heart and submandibular gland; from tissue; host or cells: whole heart of male Sprague-Dawley rats, homogenate
T7 sequence (P10980 1-466): T1 sequence (P10980 1-466)
Put plainly: Receptor bonding test in vitro, heart (displacement of 3H-N-methylscopolamine). The settings on record: 0.3 nmolar 3H-NMS, 30° C., 45 min, heart. The data set is classed as binding, Sprague-Dawley rats. For orientation: Displacement assays read how much labelled ligand stays bound in the presence of the test substance.

The target in data set [8] is T8, muscarinic receptors, submandibular gland (Rattus norvegicus, UniProt P08483).
T8 construct: After removal of the heart and submandibular gland; from tissue; host or cells: submandibular gland of male Sprague-Dawley rats, homogenate
As to the kind of experiment: Receptor bonding test in vitro, submandibular gland (displacement of 3H-N-methylscopolamine). The data set is classed as binding, Sprague-Dawley rats. The following applies: 0.3 nmolar 3H-NMS, 30° C., 45 min.

The next data set relates to salivation. Put plainly: Salivation-inhibiting effect on the rat (pilocarpine). The data set is classed as in vivo, male THOM rats. The settings on record: Rattus norvegicus, iv, read-out: Salivation inhibition (rat) ED50. Here is the method:
The secretion of saliva was triggered by subcutaneous administration of 2 mg/kg of pilocarpine. The saliva was soaked up with blotting paper and the area occupied by the saliva was determined by planimetry every 5 minutes. The dosage of substance which reduced the volume of saliva by 50% was determined graphically.

Each structure is given as a SMILES string. Like-named read-outs stand apart in the source and are kept apart here.

T6 sequence (P08483 whole entry): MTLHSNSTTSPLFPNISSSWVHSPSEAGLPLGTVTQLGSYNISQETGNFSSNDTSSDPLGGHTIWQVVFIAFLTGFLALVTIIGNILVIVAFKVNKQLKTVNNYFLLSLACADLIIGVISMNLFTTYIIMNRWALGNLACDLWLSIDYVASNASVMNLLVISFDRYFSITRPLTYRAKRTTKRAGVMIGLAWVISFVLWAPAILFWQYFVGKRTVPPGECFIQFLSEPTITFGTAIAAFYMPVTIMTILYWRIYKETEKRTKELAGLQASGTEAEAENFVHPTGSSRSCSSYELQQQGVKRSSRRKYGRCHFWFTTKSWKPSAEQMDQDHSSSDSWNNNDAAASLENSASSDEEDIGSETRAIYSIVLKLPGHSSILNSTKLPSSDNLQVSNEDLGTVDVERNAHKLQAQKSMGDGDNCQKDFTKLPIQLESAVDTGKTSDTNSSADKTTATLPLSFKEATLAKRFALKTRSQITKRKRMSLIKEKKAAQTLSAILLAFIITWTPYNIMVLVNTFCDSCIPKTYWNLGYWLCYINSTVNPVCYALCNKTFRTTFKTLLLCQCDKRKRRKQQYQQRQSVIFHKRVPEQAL
T8 sequence (P08483 whole entry): as above

With `CN(C)CC1CCCCN1CCCCNC(=O)N1c2ccccc2C(=O)Nc2cccnc21` (racemic) [Example 20, D,L-5,11-Dihydro-11-[[[4-[2-[(dimethylamino)methyl]-piperidin-1-yl]butyl]amino]carbonyl]-6H-pyrido[2,3-b][1,4]benzodiazepin-6-one], the solubility in water entry in the data set “Solubility in water” was “soluble in water”.

As for `Cl.O=C1Nc2cccnc2N(C(=O)NCCN2CCCCC2CN2CCCCC2)c2ccccc21` (stereo not drawn) [Example 39, 5,11-Dihydro-11-[[[2-[2-[(piperidin-1-yl)methyl]-piperidin-1-yl]ethyl]amino]carbonyl]-6H-pyrido[2,3-b][1,4]benzodiazepin-6-one hydrochloride], the solubility in water entry in “Solubility in water” is “soluble in water”.

What is called Kb is the affinity of an antagonist, worked out from how it opposes an agonist. With `CN1C2CCC1CC(OC(=O)C(CO)c1ccccc1)C2` (stereo not drawn) [Substance Z, atropine, reference compound], the ED50 at M2 (vagal bradycardia) was determined as 0.004 mg/kg; in [1] (read-out: M1 activity (rat) ED50) it was 0.016 mg/kg; in data set [3] it was 0.08 mg/kg; in [4], 0.03 mg/kg; in [6] it was 0.2 mg/kg. Moreover, in data set [2], the antagonist equilibrium constant (Kb) worked out at 1.41 nM. The “ID50 Bronchi” value in data set [5] was 0.1 mg/kg.

As usually defined, the IC50 is the concentration that inhibits the measured activity by half. Low values mean inhibition by little substance, high ones a need for much substance. `CCN(CC)CC1CCCCN1CC(=O)N1c2ccccc2C(=O)Nc2cccnc21` (stereo not drawn) [Substance X, 11-[[2-[(diethylamino)methyl]-piperidin-1-yl]acetyl]-5,11-dihydro-6H-pyrido[2,3-b][1,4]benzodiazepin-6-one, reference compound]: the results for the IC50 in data set [7] and in data set [8] were 150 nM and 5000 nM, respectively. The ED50 was 0.16 mg/kg at M2 (vagal bradycardia) (i.v., 50% reduction in vagal bradycardia); 0.988 mg/kg in data set [1] (i.v., 50% reduction in blood pressure rise by 0.3 mg/kg McN-A-343, read-out: M1 activity (rat) ED50); over 30 mg/kg in [6]. In data set [2] (guinea pig spontaneously beating atrium, methacholine, 30 min contact, read-out: KB Heart (dissociation constant)), the Kb came to 105 nM.

With `CCN(CC)CC1CCCCN1CCCNC(=O)N1c2ccccc2NC(=O)c2ccccc21` (stereo not drawn) [Example 8, 5-[[[3-[2-[(Diethylamino)methyl]-piperidin-1-yl]propyl]amino]carbonyl]-5,10-dihydro-11H-dibenzo[b,e][1,4]diazepin-11-one], the solubility in water result in “Solubility in water” is listed as “Soluble in water”.

As to `CN1CCN(CC(=O)N2c3ccccc3C(=O)Nc3cccnc32)CC1` [Substance Y, 5,11-dihydro-11-[(4-methyl-piperazin-1-yl)acetyl]-6H-pyrido[2,3-b][1,4]benzodiazepin-6-one, reference compound], the ED50 in the data set with salivation was 0.084 mg/kg. Further, the Kb in data set [2] worked out at 240 nM.
